Measured values as given in PubChem BioAssay AID504702 (Southern Research Specialized Biocontainment Screening …, 2011).
pIC50: −log10 of the molar value. Activity calls are given as the source filed them. The rule behind the calls is not given here.

Key:
[1] = M. tuberculosis growth inhibition with meropenem, dose response, H37Rv, set 2 (AID 504702);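 note: growth read by Alamar Blue after 7 days plus overnight incubation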; conditions: M. tuberculosis H37Rv with meropenem, growth inhibition
[2] = test system: M. tuberculosis H37Rv with meropenem, growth inhibition; test: as above; conditions: for IC90: measured here: IC90 growth with meropenem

Structure (SMILES) | growth inhibition ([1]; at 18.8 µM (top of the series)) | pIC50 [2] | IC90 [2] [µM] | growth inhibition ([1]; at 25 µM (top of the series))
Cc1cc(C)c(OCC(=O)Nc2nc3ccccc3[nH]2)c(C)c1 | 5.17% (inactive) | 5.26 | > 25 | –
O=C(Cc1ccccc1Cl)Nc1nc2ccccc2[nH]1 | -1.22% (inactive) | 4.72 | > 25 | –
COc1cccc(-c2ccc(-c3noc(-c4ccccc4F)n3)c(OC)n2)c1 | 5.58% (inactive) | – | > 25 | –
Cc1ccccc1OCC(=O)Nc1ccccc1-c1ccccc1 | 23.6% (inactive) | 4.84 | > 25 | –
S=C(Nc1ccccc1)Nc1ccc(Cl)cn1 | 1.73% (inactive) | 5.18 | > 25 | –
c1ccc(-c2cc(N3CCOCC3)nc3ccccc23)cc1 | – | 5.00 | > 18.8 | 6.06% (inactive)
Cc1ccccc1OCC(=O)Nc1noc(-c2ccccc2)n1 | – | – | – | -4.18% (inactive)
Cc1cc(C)c(OCC(=O)Nc2nc3ccc(C)cc3s2)c(C)c1 | – | – | – | -0.38% (inactive)
Cc1cc2cc(F)ccc2[nH]1 | – | – | – | 1.92% (inactive)
CCOc1ccc2[nH]ccc2c1 | – | – | – | 2.77% (inactive)
CC(Oc1ccccc1)C(=O)Nc1nc2ccc(S(C)(=O)=O)cc2s1 (configuration not stated) | – | – | – | -1.72% (inactive)
CC(C)(Oc1ccc(Cl)cc1)C(=O)Nc1nc2ccccc2s1 | – | – | – | 1.22% (inactive)
CCOc1ccc(NC(=O)COc2ccc(C)cc2C)cc1 | – | – | – | -3.23% (inactive)
CC(C)(C)c1ccc(OCC(=O)Nc2nc3ccccc3s2)cc1 | – | – | – | -9.97% (inactive)
N/C(=N\c1nc2ccccc2o1)NC(=O)C1CC1 | – | – | – | 9.34% (inactive)
Cc1cccc(C)c1OCC(=O)Nc1nc2ccc(Cl)cc2s1 | – | – | – | -2.26% (inactive)
COc1ccc2[nH]c(C)cc2c1 | – | – | – | 0.56% (inactive)
CC(=O)Nc1ccc2nc(NC(=O)COc3ccccc3)sc2c1 | – | – | – | -0.49% (inactive)
Cc1cc2cc(O)ccc2[nH]1 | – | – | – | 1.86% (inactive)
CCOc1ccc2nc(NC(=O)c3cnccn3)sc2c1 | -0.94% (inactive) | – | – | 20.9% (inactive)
Cc1ccc(OCC(=O)Nc2nc3c(Cl)cccc3s2)cc1 | – | – | – | -2.68% (inactive)
CC(C)Cn1c2c(c(O)c(C(=O)Nc3nccs3)c1=O)CCCC2 | 3.14% (inactive) | – | – | -0.17% (inactive)
COc1ccc2nc(NC(=O)COc3ccccc3)sc2c1 | – | – | – | -1.31% (inactive)
CCC(CC)c1nnc(NC(=O)c2ccc(N3CCCCC3)c([N+](=O)[O-])c2)s1 | – | – | – | 2.49% (inactive)
COc1ccc2nc(NC(=O)COc3c(C)cc(C)cc3C)sc2c1 | – | – | – | -3.9% (inactive)
O=C(COc1ccc2c3c(c(=O)oc2c1)CCC3)Nc1nc2ccccc2[nH]1 | – | – | – | -4.95% (inactive)
CCC(=O)N/C(N)=N/c1nc2ccccc2o1 | – | – | – | -1.89% (inactive)
COc1ccc2nc(NC(=O)COc3ccc(Cl)cc3)sc2c1 | – | – | – | 0.35% (inactive)
Cc1ccc(OCC(=O)Nc2nc3ccc(F)cc3s2)cc1 | – | – | – | -0.17% (inactive)
